For orientation: IC50 means the concentration needed to halve the response being measured.

The target in experiment [1] is c-KIT kinase (Homo sapiens, UniProt P10721). In words: c-KIT kinase Assay. To be noted: enzymatic assay, ATP 200 µM; read-out: KIT (wt) IC50. Also noted: cKIT residues T544-V976; GST (N); TEV cleavage site (internal); purchased deCODE Biostructures. Format: biochemical. The protocol:
In this assay, the oxidation of NADH (measured by decrease in absorbance at 340 nm) was continuously monitored spectrophotometrically. […] The absorption at 340 nm was monitored continuously for 2 hours at 30 °C on Synergy 2 (BioTeK). The reaction rate was calculated using the 0 to 1 h time frame. Percent inhibition was obtained by comparison of reaction rate with that of a control (i.e. with no test compound). IC50 values were calculated from a series of percent inhibition values determined at a range of inhibitor concentrations using software routines as implemented in the GraphPad Prism software package. The protein construct was prepared by deCODE Biostructures using procedures known in the art. The construct contains […] of cKit, an N-terminal tag, a GST-fusion sequence and a TEV cleavage site. [formula]

In experiment [2] the test system is GIST T1 cells. The experiment can be described thus: GIST T1 Cell Proliferation Assay. It counts as cell-based. The following applies: Homo sapiens, GISTT1, 72 h, 68 hours + 4 hours resazurin. The protocol:
GIST48, GIST430, and GIST882 cells were obtained from J. Fletcher (Brigham and Women's Hospital, Boston, MA). GIST T1 cells were obtained from B. Rubin (Cleveland Clinic, Cleveland, OH) and Professor Takahiro Taguchi (Kochi Medical School, Nankoku, Kochi, Japan). Briefly, GIST48 and GIST 882 cells were grown in RPMI 1640 medium supplemented with 15% characterized fetal bovine serum (Invitrogen, Carlsbad, CA), 1 unit/mL penicillin G, 1 µg/ml streptomycin, and 0.29 mg/mL L-glutamine at 37 °C, 5% CO2, and 95% humidity. GIST430 cells were grown in Ham's F10 medium supplemented with 15% characterized fetal bovine serum (Invitrogen, Carlsbad, CA), 30 mg/L bovine pituitary extract (BD Biosciences, San Jose, CA), 0.5% Mito+ serum extender (BD Biosciences, San Jose, CA), 1 unit/mL penicillin G, 1 µg/ml streptomycin, and 0.29 mg/mL L-glutamine at 37 °C, 5%CO2, 95% humidity. GIST T1 cells were grown in DMEM medium supplemented with 10% characterized fetal bovine serum (Invitrogen, Carlsbad, CA), 1 unit/mL penicillin G, 1 µg/ml streptomycin, and 0.29 mg/mL L-glutamine at 37 °C, 5% CO2, and 95% humidity.
A serial dilution of test compound was dispensed into a 384-well black clear bottom plate (Corning, Corning, NY). One thousand two-hundred fifty cells were added per well in 50 µL complete growth medium. Plates were incubated for 68 hours at 37 °C, 5% CO2, 95% humidity. At the end of the incubation period 10 µL of a 440 µM solution of resazurin (Sigma, St. Louis, MO) in PBS was added to each well and incubated for an additional 4 hours at 37 °C, 5% CO2, 95% humidity. Plates were read on a Synergy2 reader (Biotek, Winooski, VT) using an excitation of 540 nm and an emission of 600 nm.
(In general: The colour change of resazurin is a common sign of viable cells or microbes.)

The target of experiment [3] is T1, c-KIT V654A kinase (Homo sapiens, UniProt P10721, V654A).
T1 construct: residues T544-V976 with N-terminal GST fusion; purchased deCODE Biostructures
In words: c-KIT V654A Kinase Assay. It counts as biochemical. To be noted: enzymatic assay, ATP 200 µM. The procedure: In this assay, the oxidation of NADH (measured by decrease in absorbance at 340 nm) was continuously monitored spectrophotometrically. […] The inhibition reaction was started by mixing serial diluted test compound with the above reaction mixture. The absorption at 340 nm was monitored continuously for 6 hours at 30 °C on Synergy 2 plate reader (BioTech).
(§1) The protein construct was prepared by deCODE Biostructures using procedures known in the art. The construct contains residues T544-V976 of cKit, an N-terminal tag, a GST-fusion sequence and a TEV cleavage site. This construct is identical to Seq ID no.

The target in experiment [4] is T2, c-KIT D816H kinase (Homo sapiens, UniProt P10721, D816H).
T2 construct: The construct contains residues T544-V976 of cKit; GST (N); TEV cleavage site (internal); purchased deCODE Biostructures
The experiment can be described thus: c-KIT D816H Kinase Assay. Format: biochemical. The following applies: enzymatic assay, ATP 200 µM. The protocol:
(§2) In this assay, the oxidation of NADH (measured by decrease in absorbance at 340 nm) was continuously monitored spectrophotometrically. […] The inhibition reaction was started by mixing serial diluted test compound with the above reaction mixture. The absorption at 340 nm was monitored continuously for 6 hours at 30 °C on Synergy 2 plate reader (BioTech). […] The protein construct was prepared by deCODE Biostructures using procedures known in the art. The construct contains […] of cKit, an N-terminal tag, a GST-fusion sequence and a TEV cleavage site. This construct is identical to Seq ID no.

Experiment [5] addresses T3, c-KIT T670I kinase (Homo sapiens, UniProt P10721, T670I).
T3 construct: The construct contains residues T544-V976 of cKit; GST (N); TEV cleavage site (internal); purchased deCODE Biostructures
In words: c-KIT T670I kinase assay. It counts as biochemical. The following applies: enzymatic assay. The protocol: as §2, with “5” for “6”, “no. 1 except for the T670I mutation. [formula] [formula]” for “no.”

Experiment [6] concerns the target T4, c-KIT D816V kinase (Homo sapiens, UniProt P10721, D816V).
T4 construct: residues T544-V976 with N-terminal GST fusion; purchased deCODE Biostructures
The experiment can be described thus: c-KIT D816V kinase Assay. To be noted: enzymatic assay, ATP 200 uM. Format: biochemical. The protocol:
In this assay, the oxidation of NADH (measured by decrease in absorbance at 340 nm) was continuously monitored spectrophotometrically. […] The inhibition reaction was started by mixing serial diluted test compound with the above reaction mixture. The absorption at 340 nm was monitored continuously for 5 hours at 30 °C on Synergy 2 plate reader (BioTech).
as §1

T1 sequence (P10721 544-976 V654A): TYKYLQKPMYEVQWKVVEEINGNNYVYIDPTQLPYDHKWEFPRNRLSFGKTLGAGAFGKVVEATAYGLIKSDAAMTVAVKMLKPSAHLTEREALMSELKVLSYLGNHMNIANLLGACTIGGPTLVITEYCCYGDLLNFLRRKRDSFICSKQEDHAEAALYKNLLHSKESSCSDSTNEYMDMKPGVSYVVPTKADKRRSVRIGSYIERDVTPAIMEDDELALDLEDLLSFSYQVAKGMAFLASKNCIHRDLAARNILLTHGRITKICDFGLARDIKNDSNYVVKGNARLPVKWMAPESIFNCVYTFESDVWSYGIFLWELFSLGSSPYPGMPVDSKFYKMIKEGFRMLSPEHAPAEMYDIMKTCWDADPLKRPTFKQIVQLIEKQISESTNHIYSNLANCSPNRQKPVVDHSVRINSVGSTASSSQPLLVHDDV
T4 sequence (P10721 544-976 D816V): as the sequence (P10721 544-976 V654A) above, with A111V, D273V counted along it
T2 sequence (P10721 544-976 D816H): as the sequence (P10721 544-976 V654A) above, with A111V, D273H counted along it
Sequence of c-KIT kinase (P10721 544-976): as the sequence (P10721 544-976 V654A) above, with A111V counted along it
T3 sequence (P10721 544-976 T670I): as the sequence (P10721 544-976 V654A) above, with A111V, T127I counted along it

In the case of `CCn1c(=O)c(-c2cc(NC(=O)Nc3ccc(F)c(CN4CCN(C)CC4)c3)c(F)cc2C)cc2cnc(N)cc21` [Example 93, 1-(5-(7-amino-1-ethyl-2-oxo-1,2-dihydro-1,6-naphthyridin-3-yl)-2-fluoro-4-methylphenyl)-3-(4-fluoro-3-((4-methylpiperazin-1-yl)methyl)phenyl)urea], the IC50 in experiment [1] is 10 to 100 nM; in experiment [2], 10 to 100 nM; in experiment [3], 100 to 1000 nM; in experiment [4] it was 10 to 100 nM; in experiment [5], 10 to 100 nM; in experiment [6], 100 to 1000 nM.
As for `CCn1c(=O)c(-c2cc(NC(=O)Nc3ccc(F)c(CN4CCOCC4)c3)c(F)cc2Cl)cc2cnc(NC)cc21` [Example 95, 1-(4-chloro-5-(1-ethyl-7-(methylamino)-2-oxo-1,2-dihydro-1,6-naphthyridin-3-yl)-2-fluorophenyl)-3-(4-fluoro-3-(morpholinomethyl)phenyl)urea], the IC50 in experiment [1] is < 10 nM; in experiment [2] it was < 10 nM; in experiment [5], 10 to 100 nM; in experiment [6], 100 to 1000 nM.
Regarding `CCn1c(=O)c(-c2cc(NC(=O)Nc3ccccc3)c(F)cc2Cl)cc2cnc(NC(=O)N3CC[C@H](N(C)C)C3)cc21` [Example 96, (S)-N-(3-(2-chloro-4-fluoro-5-(3-phenylureido)phenyl)-1-ethyl-2-oxo-1,2-dihydro-1,6-naphthyridin-7-yl)-3-(dimethylamino)pyrrolidine-1-carboxamide], the IC50 in experiment [1] is < 10 nM; in experiment [2], < 10 nM; in experiment [3], 10 to 100 nM; in experiment [4], 10 to 100 nM; in experiment [5] it was 10 to 100 nM; in experiment [6], 10 to 100 nM.
As to `CC(C)n1c(=O)c(-c2cc(NC(=O)Nc3cccc(F)c3)c(F)cc2Cl)cc2cnc(NC(=O)N(C)C)cc21` [Example 98, 3-(3-(2-chloro-4-fluoro-5-(3-(3-fluorophenyl)ureido)phenyl)-1-isopropyl-2-oxo-1,2-dihydro-1,6-naphthyridin-7-yl)-1,1-dimethylurea], the 50% inhibitory concentration (IC50) in experiment [1] was 10 to 100 nM; in experiment [2] it was < 10 nM; in experiment [3] it was 10 to 100 nM; in experiment [4], 10 to 100 nM; in experiment [5], 10 to 100 nM; in experiment [6], < 10 nM.
Consider `CC(=O)Nc1cc2c(cn1)cc(-c1cc(NC(=O)Nc3cccc(F)c3)c(F)cc1Cl)c(=O)n2C(C)C` [Example 99, N-(3-(2-chloro-4-fluoro-5-(3-(3-fluorophenyl)ureido)phenyl)-1-isopropyl-2-oxo-1,2-dihydro-1,6-naphthyridin-7-yl)acetamide], for which the 50% inhibitory concentration (IC50) in experiment [2] is < 10 nM.
As for `CCn1c(=O)c(-c2cc(NC(=O)Nc3ccc(F)c(CN4CCN(C)CC4)c3)c(F)cc2C)cc2cnc(NC=O)cc21` [Example 100, N-(1-ethyl-3-(4-fluoro-5-(3-(4-fluoro-3-((4-methylpiperazin-1-yl)methyl)phenyl)ureido)-2-methylphenyl)-2-oxo-1,2-dihydro-1,6-naphthyridin-7-yl)formamide], the IC50 in experiment [1] is 10 to 100 nM; in experiment [2], 10 to 100 nM; in experiment [3] it was 100 to 1000 nM; in experiment [4] it was 100 to 1000 nM; in experiment [5] it was 100 to 1000 nM; in experiment [6], 100 to 1000 nM.
Turning to `CC(C)n1c(=O)c(-c2cc(NC(=O)Nc3ccccc3)c(F)cc2Cl)cc2cnc(NC(=O)N(C)C)cc21` [Example 103, 3-(3-(2-chloro-4-fluoro-5-(3-phenylureido)phenyl)-1-isopropyl-2-oxo-1,2-dihydro-1,6-naphthyridin-7-yl)-1,1-dimethylurea], the 50% inhibitory concentration (IC50) in experiment [1] is 10 to 100 nM; in experiment [2] it was 10 to 100 nM; in experiment [3], 10 to 100 nM; in experiment [4] it was 10 to 100 nM; in experiment [5] it was 10 to 100 nM; in experiment [6], < 10 nM.
`CCn1c(=O)c(-c2cc(NC(=O)Nc3csc4ccccc34)c(F)cc2C)cc2cnc(NC(=O)N(C)C)cc21` [Example 104, 3-(3-(5-(3-(benzo[b]thiophen-3-yl)ureido)-4-fluoro-2-methylphenyl)-1-ethyl-2-oxo-1,2-dihydro-1,6-naphthyridin-7-yl)-1,1-dimethylurea]: the 50% inhibitory concentration (IC50) in experiment [1] fell in the range of 10 to 100 nM; in experiment [2], 10 to 100 nM; in experiment [3], 100 to 1000 nM; in experiment [4], 10 to 100 nM; in experiment [5], 10 to 100 nM; in experiment [6], 10 to 100 nM.
Consider `CCn1c(=O)c(-c2cc(NC(=O)Nc3ccccc3)c(F)cc2Br)cc2cnc(NC(=O)N(C)C)cc21` [Example 105, 3-(3-(2-bromo-4-fluoro-5-(3-phenylureido)phenyl)-1-ethyl-2-oxo-1,2-dihydro-1,6-naphthyridin-7-yl)-1,1-dimethylurea], for which the IC50 in experiment [1] is 10 to 100 nM; in experiment [2], < 10 nM; in experiment [3], 10 to 100 nM; in experiment [4], 10 to 100 nM; in experiment [5], 10 to 100 nM; in experiment [6], 10 to 100 nM.
Consider `CCn1c(=O)c(-c2cc(NC(=O)Nc3cccc(F)c3)c(F)cc2C)cc2cnc(NC(=O)N(C)C)cc21` [Example 106, 3-(1-ethyl-3-(4-fluoro-5-(3-(3-fluorophenyl)ureido)-2-methylphenyl)-2-oxo-1,2-dihydro-1,6-naphthyridin-7-yl)-1,1-dimethylurea], for which the IC50 in experiment [1] is 10 to 100 nM; in experiment [2], < 10 nM; in experiment [3] it was 10 to 100 nM; in experiment [4], < 10 nM; in experiment [5] it was 10 to 100 nM; in experiment [6] it was 10 to 100 nM.
Turning to `CCn1c(=O)c(-c2cc(NC(=O)Nc3ccc(F)c(CN4CCOCC4)c3)c(F)cc2Cl)cc2cnc(NC=O)cc21` [Example 107, N-(3-(2-chloro-4-fluoro-5-(3-(4-fluoro-3-(morpholinomethyl)phenyl)ureido)phenyl)-1-ethyl-2-oxo-1,2-dihydro-1,6-naphthyridin-7-yl)formamide], the IC50 in experiment [2] fell in the range of 10 to 100 nM.
